We go through 16 compounds from ChEMBL document CHEMBL5620405, “A platform for the rapid synthesis of molecular glues (Rapid-Glue) under miniaturized conditions for direct biological screening” (Eur J Med Chem, 2023).

Assay [1] concerns RS4-11. The assay can be described thus: Antiproliferative activity against human RS4-11 cells assessed as cell viability at 1 uM measured after 72 hrs by Alamar blue assay. It counts as functional. As to conditions: read-out: Activity. (In general: Alamar Blue is a resazurin reagent that responds to reducing activity.)
Assay [2] has as its system RS4-11. The assay can be described thus: Antiproliferative activity against human RS4-11 cells assessed as cell viability at 0.5 uM measured after 72 hrs by Alamar blue assay. Particulars: read-out: Activity. Format: functional.
Assay [3] concerns RS4-11. The assay can be described thus: Antiproliferative activity against human RS4-11 cells assessed as cell viability at 0.1 uM measured after 72 hrs by Alamar blue assay. Format: functional. As to conditions: read-out: Activity.
For assay [4], the system named is MOLT-4. The experiment in a line: Antiproliferative activity against human MOLT-4 cells assessed as cell viability at 1 uM measured after 72 hrs by Alamar blue assay. Format: functional. Particulars: read-out: Activity.
Assay [5] has as its system RS4-11. The assay can be described thus: Antiproliferative activity against human RS4-11 cells assessed as reduction in cell viability measured after 72 hrs by Alamar blue assay. It counts as functional, cell-based. As to conditions: RS4-11, 72 h.
The test system of assay [6] is MOLT-4. The assay can be described thus: Antiproliferative activity against human MOLT-4 cells assessed as reduction in cell viability measured after 72 hrs by Alamar blue assay. It counts as functional, cell-based. Particulars: MOLT-4, 72 h.
Assay [7] relates to MM1.S. The experiment in a line: Antiproliferative activity against human MM1.S cells assessed as reduction in cell viability measured after 72 hrs by Alamar blue assay. It counts as functional, cell-based.
The target of assay [8] is T1, Protein cereblon/Eukaryotic peptide chain release factor GTP-binding subunit ERF3A (Homo sapiens, UniProt Q96SW2+P15170). The assay can be described thus: Molecular glue activity at CRBN/GSPT1 in human RS4-11 cells assessed as induction of GSPT1 degradation at 1 uM measured after 4 hrs by western blot analysis. Format: cell-based.
Target sequence in this assay (P15170 whole entry, looked up): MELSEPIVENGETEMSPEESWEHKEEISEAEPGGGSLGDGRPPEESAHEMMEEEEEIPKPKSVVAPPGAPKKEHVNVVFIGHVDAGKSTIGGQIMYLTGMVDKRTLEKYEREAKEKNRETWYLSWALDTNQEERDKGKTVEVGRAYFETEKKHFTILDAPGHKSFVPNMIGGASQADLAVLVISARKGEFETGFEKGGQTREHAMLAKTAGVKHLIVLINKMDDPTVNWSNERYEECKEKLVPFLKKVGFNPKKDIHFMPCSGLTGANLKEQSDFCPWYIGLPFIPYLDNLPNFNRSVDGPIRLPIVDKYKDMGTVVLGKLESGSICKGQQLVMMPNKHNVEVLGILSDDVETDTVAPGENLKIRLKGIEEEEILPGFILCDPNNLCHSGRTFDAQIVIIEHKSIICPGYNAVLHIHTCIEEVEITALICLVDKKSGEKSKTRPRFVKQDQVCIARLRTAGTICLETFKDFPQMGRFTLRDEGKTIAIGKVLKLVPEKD
Target sequence in this assay (Q96SW2 whole entry, looked up): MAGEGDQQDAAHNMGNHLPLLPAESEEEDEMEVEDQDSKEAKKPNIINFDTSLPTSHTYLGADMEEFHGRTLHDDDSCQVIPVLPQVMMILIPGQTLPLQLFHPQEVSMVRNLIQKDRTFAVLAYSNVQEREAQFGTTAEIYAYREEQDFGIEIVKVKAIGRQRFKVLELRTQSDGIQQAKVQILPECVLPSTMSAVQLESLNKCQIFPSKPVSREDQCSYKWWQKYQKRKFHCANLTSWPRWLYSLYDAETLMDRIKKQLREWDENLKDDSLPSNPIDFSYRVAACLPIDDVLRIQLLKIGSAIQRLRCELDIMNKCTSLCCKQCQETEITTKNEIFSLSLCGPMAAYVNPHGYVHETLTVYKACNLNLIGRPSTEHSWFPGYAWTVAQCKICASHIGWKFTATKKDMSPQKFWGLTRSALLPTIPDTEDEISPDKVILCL
In assay [9] the target is T1, Protein cereblon/Eukaryotic peptide chain release factor GTP-binding subunit ERF3A. The experiment in a line: Molecular glue activity at CRBN/GSPT1 in human RS4-11 cells assessed as induction of GSPT1 degradation at 0.1 uM measured after 24 hrs by western blot analysis. Format: cell-based.
Target sequence in this assay (P15170 whole entry, looked up): as the sequence (P15170 whole entry, looked up) above
Target sequence in this assay (Q96SW2 whole entry, looked up): as the sequence (Q96SW2 whole entry, looked up) above
Assay [10] shares this target. The assay can be described thus: Molecular glue activity at CRBN/GSPT1 in human RS4-11 cells assessed as induction of GSPT1 degradation measured after 12 hrs by western blot analysis. Format: cell-based. Particulars: dose 0.0001-10 µM. A general note: Immunoblotting shows a protein as a band on a membrane.
Target sequence in this assay (P15170 whole entry, looked up): as the sequence (P15170 whole entry, looked up) above
Target sequence in this assay (Q96SW2 whole entry, looked up): as the sequence (Q96SW2 whole entry, looked up) above
For assay [11] the target is unchanged. The experiment in a line: Molecular glue activity at CRBN/GSPT1 in human RS4-11 cells assessed as induction of GSPT1 degradation at 1 uM by western blot analysis. Particulars: time 0.5-24 hrs, TDE = time-dependent effect. Format: cell-based.
Target sequence in this assay (P15170 whole entry, looked up): as the sequence (P15170 whole entry, looked up) above
Target sequence in this assay (Q96SW2 whole entry, looked up): as the sequence (Q96SW2 whole entry, looked up) above
The target is the same in assay [12]. The assay can be described thus: Molecular glue activity at CRBN/GSPT1 in human RS4-11 cells assessed as induction of GSPT1 degradation by western blot analysis. It counts as cell-based.
Target sequence in this assay (Q96SW2 whole entry): as the sequence (Q96SW2 whole entry, looked up) above
Target sequence in this assay (P15170 whole entry): as the sequence (P15170 whole entry, looked up) above
Assay [13] has the same target. The assay can be described thus: Molecular glue activity at CRBN/GSPT1 in human RS4-11 cells assessed as induction of GSPT1 degradation by measuring reduction in GSPT1 level measured for 6 hrs by western blot analysis. It counts as cell-based. Also noted: scale not given: the % may be the effect or the level left.
Target sequence in this assay (P15170 whole entry, looked up): as above
Target sequence in this assay (Q96SW2 whole entry, looked up): as the sequence (Q96SW2 whole entry, looked up) above
Assay [14] shares this target. The experiment in a line: Molecular glue activity at CRBN/GSPT1 in human RS4-11 cells assessed as downregulation of GSPT1 expression at 1 uM measured after 6 hrs by TMT-mass spectrometry. It counts as cell-based.
Target sequence in this assay (P15170 whole entry, looked up): as the sequence (P15170 whole entry, looked up) above
Target sequence in this assay (Q96SW2 whole entry, looked up): as the sequence (Q96SW2 whole entry, looked up) above

Active and inactive are the calls of the source. The rule behind the calls is not given here.

As usually defined, the IC50 is the midpoint of a concentration-inhibition curve. By DC50 is commonly meant the concentration giving 50% degradation. As for `O=C(COc1ccccc1-c1cccc2c1CN(C1CCC(=O)NC1=O)C2=O)N/N=C/c1cn(S(=O)(=O)c2ccccc2)c2ccccc12` (centres undefined), the viability at 1 µM in [1] turned out to be 15%; in assay [4], 43%. The viability at 0.5 µM in assay [2] stood at 5%. Moreover, the viability at 0.1 µM in [3] worked out at 52%. Besides, the IC50 in assay [5] is 7 nM; in assay [6], 175 nM; in assay [7], 131 nM. For the same compound, the Activity was 100% in assay [8]; 100% in assay [9]; “Dose-Dependent Effect” in assay [10]; “Tde” in [11]; more than 50% in assay [13]. Further, the DC50 in [12] stood at 154 nM. In addition, the result in [14] was Active.
Take `O=C(COc1ccc(-c2ccc3c(c2)CN(C2CCC(=O)NC2=O)C3=O)cc1)N/N=C/c1c(C(F)(F)F)ccc(Cl)c1Cl` (centres undefined): the viability at 1 µM in assay [1] turned out to be 54%; in [4], 67%.
Turning to `CN1C(=O)CCC(N2Cc3cc(-c4ccc(OCC(=O)N/N=C/c5c(C(F)(F)F)ccc(Cl)c5Cl)cc4)ccc3C2=O)C1=O` (centres undefined), the viability at 1 µM in assay [1] and in assay [4] was more than 100% throughout.
For `O=C(COc1ccc(-c2ccc3c(c2)CN(C2CCC(=O)NC2=O)C3=O)cc1)N/N=C/c1c(Cl)ccc(C(F)(F)F)c1Cl` (centres undefined), the viability at 1 µM in assay [1] is 47%; in assay [4] it was 74%.
Turning to `O=C(COc1ccccc1-c1cccc2c1CN(C1CCC(=O)NC1=O)C2=O)NCCc1cn(S(=O)(=O)c2ccccc2)c2ccccc12` (centres undefined), the DC50 in assay [12] was determined as 168 nM.
Consider `O=C1CCC(N2Cc3cc(CNC(=O)C(F)(F)c4ccc(Cl)cc4)ccc3C2=O)C(=O)N1` (centres undefined), for which the IC50 in assay [5] came out at 0.1 nM.
For the compound `CN1C(=O)CCC(N2Cc3c(cccc3-c3ccccc3OCC(=O)N/N=C/c3cn(S(=O)(=O)c4ccccc4)c4ccccc34)C2=O)C1=O` (centres undefined), the viability at 1 µM in assay [1] is 97%; in assay [4], more than 100%. In addition, the figures for the IC50 in [5], in [6] and in assay [7] were more than 1000 nM, more than 1000 nM and more than 10000 nM, respectively.
As to `CN1CCN(c2ncc(/C=N/NC(=O)COc3ccccc3-c3cccc4c3CN(C3CCC(=O)NC3=O)C4=O)s2)CC1` (centres undefined), the viability at 1 µM in assay [1] was found to be 24%; in assay [4], 66%. Also, the viability at 0.5 µM in assay [2] is 23%. For the same compound, the viability at 0.1 µM in [3] is 56%. In addition, the IC50 in assay [5] is 71 nM; in assay [6], more than 1000 nM; in assay [7], more than 10000 nM.
For `CN1C(=O)CCC(N2Cc3cc(-c4ccc(OCC(=O)N/N=C/c5c(Cl)ccc(C(F)(F)F)c5Cl)cc4)ccc3C2=O)C1=O` (centres undefined), the viability at 1 µM in assay [1] and in [4] was more than 100% in each case.
With `O=C(COc1ccccc1-c1cccc2c1CN(C1CCC(=O)NC1=O)C2=O)NCc1cn(S(=O)(=O)c2ccccc2)c2ccccc12` (centres undefined), the DC50 in [12] is 166 nM.
The same measure, in the same setting: to `O=C(COc1ccccc1-c1cccc2c1CN(C1CCC(=O)NC1=O)C2=O)NCc1nn(Cc2ccccc2)c2ccccc12` (centres undefined) belongs 785 nM.
`CN1CCN(c2ncc(/C=N/NC(=O)COc3ccccc3-c3cccc4c3CN(C3CCC(=O)N(C)C3=O)C4=O)s2)CC1` (centres undefined): the results for the viability at 1 µM in assay [1] and in assay [4] were 96% and more than 100%, respectively. Further, the IC50 in assay [5] is more than 1000 nM; in assay [6], more than 10000 nM; in assay [7], more than 10000 nM.
Consider `CN1C(=O)CCC(N2Cc3c(cccc3-c3ccccc3OCC(=O)N/N=C/c3nn(Cc4ccccc4)c4ccccc34)C2=O)C1=O` (centres undefined), for which the viability at 1 µM in assay [1] is 98%; in assay [4], more than 100%. In addition, the IC50 in assay [5], in assay [6] and in assay [7] was more than 1000 nM throughout.
For `Cc1nc2ccccn2c1/C=N/NC(=O)COc1ccccc1-c1cccc2c1CN(C1CCC(=O)NC1=O)C2=O` (centres undefined), the viability at 1 µM in assay [1] came to 25%; in [4], 52%. The viability at 0.5 µM in assay [2] worked out at 15%. Further, the viability at 0.1 µM in assay [3] worked out at 46%. The IC50 in [5] was 7 nM; in assay [6], more than 10000 nM; in assay [7], more than 10000 nM.
On to `O=C(COc1ccccc1-c1cccc2c1CN(C1CCC(=O)NC1=O)C2=O)N/N=C/c1nn(Cc2ccccc2)c2ccccc12` (centres undefined), for which the viability at 1 µM in assay [1] is 11%; in assay [4], 7%. The viability at 0.5 µM in [2] worked out at 6%. Also, in assay [3], the viability at 0.1 µM was 86%. In addition, the results for the 50% inhibitory concentration (IC50) in [5], in assay [6] and in assay [7] were 2 nM, 260 nM and 370 nM, respectively. Moreover, the Activity is 100% in assay [8]; 100% in assay [9]; “Dose-Dependent Effect” in [10]; “Tde” in assay [11]; more than 50% in assay [13]. The DC50 in assay [12] worked out at 50 nM. The outcome in assay [14] was Active.
For `Cc1nc2ccccn2c1/C=N/NC(=O)COc1ccccc1-c1cccc2c1CN(C1CCC(=O)N(C)C1=O)C2=O` (centres undefined), the viability at 1 µM is 89% in assay [1] and more than 100% in assay [4]. In addition, the IC50 in assay [5], in assay [6] and in assay [7] was more than 10000 nM throughout.
